Experimental data: publication PMC3386561 (Toxicology in Vitro, 2011)
Converted amounts (≈) assume the structure as drawn. “Also recorded” adds a separate entry of the source.

Tests used:
[1] = test system: HepG2-CYP3A4 transfected cells; test: Cell viability; assay type: cell-based; conditions: for Cytotoxicity (in words): 0-250 μM; for Concentration at which a significant decrease in cell viability begins: p < 0.05 vs 0 μM control
liver = conditions: cited from earlier work; for Toxicity / liver damage in rats (in words): ref Patel et al., 2011
Cell viability [2] = assay type: cell-based; conditions: human; for viability: % Cell Viability
Cell viability [3] = assay type: cell-based; conditions: human
HepG2 wild type cells = test: Cell viability; assay type: cell-based; conditions: 24 hr
Solubility in HBSS = assay type: physicochemical
DCPT hydrolysis in HBSS = assay type: physicochemical; conditions: 250 μM in HBSS, 37 °C, after 24 hr
CYP3A4 [4] = target: T1, CYP3A4 (Homo sapiens, UniProt P08684)
T1 sequence (P08684 whole entry): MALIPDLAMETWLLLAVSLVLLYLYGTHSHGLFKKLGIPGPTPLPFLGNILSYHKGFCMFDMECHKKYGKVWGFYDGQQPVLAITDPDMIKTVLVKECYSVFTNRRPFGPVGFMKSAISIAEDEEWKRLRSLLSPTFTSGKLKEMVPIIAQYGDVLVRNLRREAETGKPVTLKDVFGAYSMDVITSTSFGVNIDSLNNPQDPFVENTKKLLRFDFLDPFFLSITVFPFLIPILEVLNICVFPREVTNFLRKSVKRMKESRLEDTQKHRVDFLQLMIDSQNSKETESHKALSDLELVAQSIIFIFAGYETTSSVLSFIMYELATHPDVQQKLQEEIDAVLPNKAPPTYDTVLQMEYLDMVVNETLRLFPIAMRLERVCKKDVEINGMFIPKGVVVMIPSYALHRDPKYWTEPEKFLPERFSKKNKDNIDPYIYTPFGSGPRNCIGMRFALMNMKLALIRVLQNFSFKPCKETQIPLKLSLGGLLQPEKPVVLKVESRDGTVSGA

CYP3A4 [5] = target: T1, CYP3A4; test: in vitro
CYP3A4 [6] = target: T1, CYP3A4; test: Testosterone 6β-hydroxylation in HepG2 wild type cells; conditions: 0-250 μM testosterone, 1 hr

In the case of `O=C1SCCN1c1cc(Cl)cc(Cl)c1` [2-DCTD, (3,5-dichlorophenyl)-2-thiazolidinone], the Cell viability ([1]; 100 μM, 24 hr) is given as 99.6 ± 4.6%, the Cell viability ([1]; 250 μM, 24 hr) is given as 37.3 ± 7.1% and the “Toxicity / liver damage in rats (in words)” value (from here on “Toxicity / liver damage”) (liver) is given as “neither compound produced liver damage”.

With `O=C1CSCN1c1cc(Cl)cc(Cl)c1` [4-DCTD, 3-(3,5-dichlorophenyl)-4-thiazolidinone] the CC50 at 24 h (Cell viability [2]; HepG2-CYP3A4 transfected cells) was > 250 µM, the “Cytotoxicity (in words)” value ([1]; 24 hr) was “not cytotoxic; also recorded: not toxic” and the CC50 at 24 h (Cell viability [3]) was > 250 µM. For the same compound, the “Toxicity / liver damage” value (liver) was “neither compound produced liver damage”.

Work on `O=C1CSC(=O)N1c1cc(Cl)cc(Cl)c1` [DCPT, 3-(3,5-dichlorophenyl)-2,4-thiazolidinedione] yielded a viability (Cell viability [2]; 100 μM DCPT alone, 24 hr) of 82.6 ± 2.8%, a viability (Cell viability [2]; 100 μM DEX pretreatment 24 hr, then 100 μM DCPT 24 hr) of 73 ± 1% and a viability (Cell viability [2]; 250 μM DCPT alone, 24 hr) of 21.3 ± 3.2%. For the same compound, the CC50 at 24 h (Cell viability [2]; HepG2-CYP3A4 transfected cells) was 160 ± 5.9 µM, the “Reduction of cell viability” value ([1]; 250 μM DCPT, 24 hr) was 80% and the “Concentration at which a significant decrease in cell viability begins” value ([1]; 24 hr) was 100 µM. The “Decrease in cell viability” value ([1]; DEX pretreatment followed by 100 μM DCPT, compared to controls) was “approximately 10%”, the CC50 at 24 h (Cell viability [3]) was 233 ± 19.7 µM and the “Reduction of cell viability” value (HepG2 wild type cells; highest concentration (250 μM) DCPT) was “approximately 60%”. For the same compound, the solubility (Solubility in HBSS; HBSS, aqueous buffer) was 250 µM (≈ 65.5 µg/mL), the DCPT remaining (DCPT hydrolysis in HBSS) was “less than 50%” and the “Hepatotoxicity in rats (in words)” value (liver; Fischer 344 rats, ref Kennedy et al., 2003, Patel et al., 2008) was “hepatotoxic”.

With `O=C(O)CSC(=O)Nc1cc(Cl)cc(Cl)c1` [DCTA, S-(3,5-dichlorophenyl)aminocarbonyl thioglycolic acid] the CC50 at 24 h (Cell viability [2]; HepG2-CYP3A4 transfected cells) was 67.3 ± 8.1 µM, the “Concentration at which a significant decrease in cell viability begins” value ([1]; 24 hr) was 50 µM and the CC50 at 24 h (Cell viability [3]) was 65.3 ± 3.9 µM. For the same compound, the “Toxicity / liver damage” value (liver) was “toxic”.

In the case of `O=C=Nc1cc(Cl)cc(Cl)c1` [DPI, 3,5-dichlorophenyl isocyanate], the CC50 at 24 h (Cell viability [2]) is reported as > 250 µM, the viability at 24 h, 250 μM (Cell viability [2]) is reported as ≥ 50% and the “Concentration at which a significant decrease in cell viability begins” value ([1]; 24 hr) is reported as 100 µM. For the same compound, the CC50 at 24 h (Cell viability [3]) was > 250 µM, the viability at 24 h, 250 μM (Cell viability [3]) was ≥ 50% and the “Concentration at which a significant decrease in cell viability begins” value (HepG2 wild type cells; p < 0.05 vs 0 μM control) was 25 µM.

With `CC1SC(=O)N(c2cc(Cl)cc(Cl)c2)C1=O` (centres unmarked) [DPMT, 3-(3,5-dichlorophenyl)-5-methyl-2,4-thiazolidinedione] the CC50 at 24 h (Cell viability [2]; HepG2-CYP3A4 transfected cells) was > 250 µM, the “Cytotoxicity (in words)” value ([1]; 24 hr) was “no observed decrease in viability; also recorded: non-toxic” and the CC50 at 24 h (Cell viability [3]) was > 250 µM. For the same compound, the “Solubility in HBSS (in words)” value (Solubility in HBSS; evident at 250 μM) was “issues regarding the solubility” and the “Toxicity / liver damage” value (liver) was “hepatotoxic”.

For `CC(=O)N1CCN(c2ccc(OCC3COC(Cn4ccnc4)(c4ccc(Cl)cc4Cl)O3)cc2)CC1` (centres unmarked) [KCZ, ketoconazole, reference compound], the viability (Cell viability [2]) was 106 ± 4.5%.

For `C[C@]12CC[C@H]3[C@@H](CCC4=CC(=O)CC[C@@]43C)[C@@H]1CC[C@@H]2O` [Testosterone], the “Vmax of testosterone 6β-hydroxylation” value (CYP3A4 [4]) was 92.7 ± 13.3 pmol/min/mg protein, the Km (CYP3A4 [5]) was 81.1 ± 5.7 µM and the 6β-hydroxylation of testosterone (CYP3A4 [6]) was “no detectable”.
